From US20130059879A1, “Small Molecule Inhibitors of PFKFB3 and Glycolytic Flux and Their Methods of Use as Anti-Cancer Therapeutics” (UNIVERSITY OF LOUISVILLE RESEARCH FOUNDATION, INC., priority 2010, published 2013)

Test system: Calu-6
Assay: Cancer cell proliferation, Alamar Blue assay, 72 hours
Type: cell-based
Conditions: Homo sapiens, Calu-6
Description: (§1) The ability of the compounds described herein to kill or inhibit the proliferation of cancer cells was measured using either the MTT assay, or the Alamar Blue assay, or the Cell Titer Glow® assay using 48 or 72 hours exposure. […] The procedures are briefly described below. Cells of the desired tumor cell line were plated at 2×10^5 cells/ml in 96 well plates. Twice the indicated concentrations of the compounds of the invention were added to cells the following day in an equal volume of media. 72 hours later, cells were lysed and subjected to ATP determination using the CellTiter Glo-Luminescent Cell Viability Assay kit (Promega, Madison, Wis.). Experiments were done in triplicate. When using the MTT assay or the Alamar blue assay, the experimental conditions are essentially similar; at the end of the incubation period, 20 microliters of the MTT solution is added per well and the samples are incubated for an additional four hours, rinsed, and the absorbance at 570 nm measured. […] Table 2 lists the IC50 values for the compounds of the invention in several cell lines including Jurkat, Calu-6, NCI-H82, U937, HCT-116, and MDA-MB-231 cancer cell lines.

SMILES | IC50
COc1cccc(C(O)c2cc3c(ccc4ccccc43)[nH]2)c1 (stereo not drawn) [ACT-PFK-124, (3H-Benzo[e]indol-2-yl)-(3-methoxy-phenyl)-methanol] | 10.3 µM
OC(c1ccncc1)c1cc2c(ccc3ccccc32)[nH]1 (stereo not drawn) [ACT-PFK-125, (3H-Benzo[e]indol-2-yl)-pyridin-4-yl-methanol] | 39.5 µM
O=C(Nc1ccccc1)c1cc2c(ccc3ccccc32)[nH]1 [ACT-PFK-126, 3H-Benzo[e]indole-2-carboxylic acid phenylamide] | 1.1 µM
COc1cccc(NC(=O)c2cc3c(ccc4ccccc43)[nH]2)c1 [ACT-PFK-127, 3H-Benzo[e]indole-2-carboxylic acid (3-methoxy-phenyl)-amide] | 1.02 µM
CS(=O)(=O)Nc1ccc(C(=O)c2cc3c(ccc4ccccc43)[nH]2)cc1 [ACT-PFK-133, N-[4-(3H-Benzo[e]indole-2-carbonyl)-phenyl]-methanesulfonamide] | 40.9 µM
Nc1ccc(NC(=O)c2cc3c(ccc4ccccc43)[nH]2)cc1 [ACT-PFK-134, 3H-Benzo[e]indole-2-carboxylic acid (4-amino-phenyl)-amide] | 2.45 µM

Continued, values first:

IC50 | SMILES
0.055 µM | O=C(c1cccc(CO)c1)c1cc2c(ccc3ccccc32)[nH]1 [ACT-PFK-120, (3H-Benzo[e]indol-2-yl)-(3-hydroxymethyl-phenyl)-methanone]
0.079 µM | O=C(c1cc2c(cc(F)c3ccccc32)[nH]1)C1CCCCC1 [ACT-PFK-121, Cyclohexyl-(5-fluoro-3H-benzo[e]indol-2-yl)-methanone]
0.07 µM | O=C(c1ccc(O)c(F)c1)c1cc2c(cc(F)c3ccccc32)[nH]1 [ACT-PFK-122, (5-Fluoro-3H-benzo[e]indol-2-yl)-(3-fluoro-4-hydroxy-phenyl)-methanone]
> 100 µM | CN(C)c1ccc(C(=O)c2cc3c(ccc4ccccc43)[nH]2)cc1 [ACT-PFK-128, (3H-Benzo[e]indol-2-yl)-(4-dimethylamino-phenyl)-methanone]
0.355 µM | COc1cc(C(=O)c2cc3c(ccc4ccccc43)[nH]2)ccc1N [ACT-PFK-129, (4-Amino-3-methoxy-phenyl)-(3H-benzo[e]indol-2-yl)-methanone]
1.65 µM | COc1cc(C(=O)c2cc3c(cc(O)c4ccccc43)[nH]2)ccc1N [ACT-PFK-130, (4-Amino-3-methoxy-phenyl)-(5-hydroxy-3H-benzo[e]indol-2-yl)-methanone]
> 100 µM | COc1cc(C(=O)c2cc3c(cc(OC)c4ccccc43)[nH]2)ccc1N [ACT-PFK-131, (4-Amino-3-methoxy-phenyl)-(5-methoxy-3H-benzo[e]indol-2-yl)-methanone]

Test system: Jurkat
Assay: as above
Type: cell-based
Conditions: Homo sapiens, Jurkat
Description: as §1

SMILES | IC50
COc1cccc(C(O)c2cc3c(ccc4ccccc43)[nH]2)c1 (stereo not drawn) [ACT-PFK-124, (3H-Benzo[e]indol-2-yl)-(3-methoxy-phenyl)-methanol] | 8.8 µM
OC(c1ccncc1)c1cc2c(ccc3ccccc32)[nH]1 (stereo not drawn) [ACT-PFK-125, (3H-Benzo[e]indol-2-yl)-pyridin-4-yl-methanol] | 22.7 µM
O=C(Nc1ccccc1)c1cc2c(ccc3ccccc32)[nH]1 [ACT-PFK-126, 3H-Benzo[e]indole-2-carboxylic acid phenylamide] | 0.85 µM
COc1cccc(NC(=O)c2cc3c(ccc4ccccc43)[nH]2)c1 [ACT-PFK-127, 3H-Benzo[e]indole-2-carboxylic acid (3-methoxy-phenyl)-amide] | 0.78 µM
CS(=O)(=O)Nc1ccc(C(=O)c2cc3c(ccc4ccccc43)[nH]2)cc1 [ACT-PFK-133, N-[4-(3H-Benzo[e]indole-2-carbonyl)-phenyl]-methanesulfonamide] | 2.35 µM
Nc1ccc(NC(=O)c2cc3c(ccc4ccccc43)[nH]2)cc1 [ACT-PFK-134, 3H-Benzo[e]indole-2-carboxylic acid (4-amino-phenyl)-amide] | 3.3 µM

Other lines, results leading:

IC50 | SMILES
0.155 µM | O=C(c1cccc(CO)c1)c1cc2c(ccc3ccccc32)[nH]1 [ACT-PFK-120, (3H-Benzo[e]indol-2-yl)-(3-hydroxymethyl-phenyl)-methanone]
0.115 µM | O=C(c1cc2c(cc(F)c3ccccc32)[nH]1)C1CCCCC1 [ACT-PFK-121, Cyclohexyl-(5-fluoro-3H-benzo[e]indol-2-yl)-methanone]
0.235 µM | O=C(c1ccc(O)c(F)c1)c1cc2c(cc(F)c3ccccc32)[nH]1 [ACT-PFK-122, (5-Fluoro-3H-benzo[e]indol-2-yl)-(3-fluoro-4-hydroxy-phenyl)-methanone]
> 100 µM | CN(C)c1ccc(C(=O)c2cc3c(ccc4ccccc43)[nH]2)cc1 [ACT-PFK-128, (3H-Benzo[e]indol-2-yl)-(4-dimethylamino-phenyl)-methanone]
0.23 µM | COc1cc(C(=O)c2cc3c(ccc4ccccc43)[nH]2)ccc1N [ACT-PFK-129, (4-Amino-3-methoxy-phenyl)-(3H-benzo[e]indol-2-yl)-methanone]
1.13 µM | COc1cc(C(=O)c2cc3c(cc(O)c4ccccc43)[nH]2)ccc1N [ACT-PFK-130, (4-Amino-3-methoxy-phenyl)-(5-hydroxy-3H-benzo[e]indol-2-yl)-methanone]
> 100 µM | COc1cc(C(=O)c2cc3c(cc(OC)c4ccccc43)[nH]2)ccc1N [ACT-PFK-131, (4-Amino-3-methoxy-phenyl)-(5-methoxy-3H-benzo[e]indol-2-yl)-methanone]

Test system: NCI-H82
Assay: as above
Type: cell-based
Conditions: Homo sapiens, NCI-H82, read-out: IC50 NCl-H82
Description: as §1

SMILES | IC50
COc1cccc(C(O)c2cc3c(ccc4ccccc43)[nH]2)c1 (stereo not drawn) [ACT-PFK-124, (3H-Benzo[e]indol-2-yl)-(3-methoxy-phenyl)-methanol] | 11.2 µM
OC(c1ccncc1)c1cc2c(ccc3ccccc32)[nH]1 (stereo not drawn) [ACT-PFK-125, (3H-Benzo[e]indol-2-yl)-pyridin-4-yl-methanol] | 20.3 µM
O=C(Nc1ccccc1)c1cc2c(ccc3ccccc32)[nH]1 [ACT-PFK-126, 3H-Benzo[e]indole-2-carboxylic acid phenylamide] | 0.84 µM
COc1cccc(NC(=O)c2cc3c(ccc4ccccc43)[nH]2)c1 [ACT-PFK-127, 3H-Benzo[e]indole-2-carboxylic acid (3-methoxy-phenyl)-amide] | 0.755 µM
CS(=O)(=O)Nc1ccc(C(=O)c2cc3c(ccc4ccccc43)[nH]2)cc1 [ACT-PFK-133, N-[4-(3H-Benzo[e]indole-2-carbonyl)-phenyl]-methanesulfonamide] | 11.9 µM
Nc1ccc(NC(=O)c2cc3c(ccc4ccccc43)[nH]2)cc1 [ACT-PFK-134, 3H-Benzo[e]indole-2-carboxylic acid (4-amino-phenyl)-amide] | 3.45 µM

The next lines start with the values.

IC50 | SMILES
0.27 µM | O=C(c1cccc(CO)c1)c1cc2c(ccc3ccccc32)[nH]1 [ACT-PFK-120, (3H-Benzo[e]indol-2-yl)-(3-hydroxymethyl-phenyl)-methanone]
0.335 µM | O=C(c1cc2c(cc(F)c3ccccc32)[nH]1)C1CCCCC1 [ACT-PFK-121, Cyclohexyl-(5-fluoro-3H-benzo[e]indol-2-yl)-methanone]
0.32 µM | O=C(c1ccc(O)c(F)c1)c1cc2c(cc(F)c3ccccc32)[nH]1 [ACT-PFK-122, (5-Fluoro-3H-benzo[e]indol-2-yl)-(3-fluoro-4-hydroxy-phenyl)-methanone]
> 100 µM | CN(C)c1ccc(C(=O)c2cc3c(ccc4ccccc43)[nH]2)cc1 [ACT-PFK-128, (3H-Benzo[e]indol-2-yl)-(4-dimethylamino-phenyl)-methanone]
0.37 µM | COc1cc(C(=O)c2cc3c(ccc4ccccc43)[nH]2)ccc1N [ACT-PFK-129, (4-Amino-3-methoxy-phenyl)-(3H-benzo[e]indol-2-yl)-methanone]
1.45 µM | COc1cc(C(=O)c2cc3c(cc(O)c4ccccc43)[nH]2)ccc1N [ACT-PFK-130, (4-Amino-3-methoxy-phenyl)-(5-hydroxy-3H-benzo[e]indol-2-yl)-methanone]
> 100 µM | COc1cc(C(=O)c2cc3c(cc(OC)c4ccccc43)[nH]2)ccc1N [ACT-PFK-131, (4-Amino-3-methoxy-phenyl)-(5-methoxy-3H-benzo[e]indol-2-yl)-methanone]
